{"source": "patent US10376598B2", "about": "“Targeted therapeutics” (Madrigal Pharmaceuticals, Inc., priority 2013, dated 2019)", "key": {"HER2 [1]": {"test_system": "HER2", "assay": "HER2 degradation in BT-474 cells (Method 1, Western blot)", "type": "cell-based, human", "conditions": "0.5 μM, overnight", "procedure": "[…]. The resulting supernatant used as the cytosol fractions is dissolved with sample buffer for SDS-PAGE and run on a SDS-PAGE gel, blotted onto a nitrocellulose membrane by using semi-dry transfer. Non-specific binding to nitrocellulose is blocked with 5% skim milk in TBS with 0.5% Tween at room temperature for 1 hour, then probed with anti-HER2/ErB2 mAb (rabbit IgG, #2242, Cell Signaling) and anti-Tubulin (T9026, Sigma) as housekeeping control protein. HRP-conjugated goat anti-rabbit IgG (H+L) and HRP-conjugated horse anti-mouse IgG (H+L) are used as secondary Ab (#7074, #7076, Cell Signaling) and LumiGLO reagent, 20× Peroxide (#7003, Cell Signaling) is used for visualization. The Hsp90 client protein HER2 is degraded when cells are treated with Hsp90-targeting moieties or SDC-TRAPs of the invention."}, "p38α MAPK": {"target": "p38α MAPK (Homo sapiens, UniProt Q16539)", "sequence (Q16539 whole entry)": "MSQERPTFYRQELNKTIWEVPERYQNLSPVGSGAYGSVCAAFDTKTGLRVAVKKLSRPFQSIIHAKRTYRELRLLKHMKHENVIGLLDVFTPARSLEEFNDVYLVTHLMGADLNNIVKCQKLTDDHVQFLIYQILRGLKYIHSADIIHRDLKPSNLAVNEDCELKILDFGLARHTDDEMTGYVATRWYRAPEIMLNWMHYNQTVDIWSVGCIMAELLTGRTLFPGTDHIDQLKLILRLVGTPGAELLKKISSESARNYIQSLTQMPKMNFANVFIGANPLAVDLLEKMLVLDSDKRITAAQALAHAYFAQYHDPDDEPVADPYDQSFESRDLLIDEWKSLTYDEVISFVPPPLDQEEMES", "conditions": "cited from earlier work"}, "β isoform of p38 MAPK": {"target": "β isoform of p38 MAPK (Homo sapiens, UniProt Q15759)", "sequence (Q15759 whole entry, canonical isoform)": "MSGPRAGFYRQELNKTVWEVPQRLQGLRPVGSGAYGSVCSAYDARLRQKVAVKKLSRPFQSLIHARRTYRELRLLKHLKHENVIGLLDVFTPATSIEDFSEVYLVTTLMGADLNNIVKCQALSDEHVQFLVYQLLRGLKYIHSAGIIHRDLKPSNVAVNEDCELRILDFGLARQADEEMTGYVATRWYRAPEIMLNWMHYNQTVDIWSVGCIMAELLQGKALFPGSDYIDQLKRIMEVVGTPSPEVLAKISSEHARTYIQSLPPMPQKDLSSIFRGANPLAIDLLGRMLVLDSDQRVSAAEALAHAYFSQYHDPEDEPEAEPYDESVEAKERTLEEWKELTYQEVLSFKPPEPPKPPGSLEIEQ", "conditions": "in vitro; cited from earlier work"}, "[2]": {"test_system": "phosphorylation of MK2 (Thr334)", "conditions": "TNFα-stimulated HeLa cells; cited from earlier work"}, "[3]": {"test_system": "phosphorylation of MK2 (Thr334)", "conditions": "anisomycin-induced mouse RAW264.7 macrophages; cited from earlier work"}, "TNFα secretion": {"test_system": "TNFα secretion", "conditions": "LPS/IFNγ-stimulated macrophages; cited from earlier work"}, "phospho-MK2": {"test_system": "phospho-MK2", "conditions": "cited from earlier work"}, "SW1990": {"test_system": "SW1990", "conditions": "read-out: IC50 cell proliferation; cited from earlier work"}, "[4]": {"test_system": "SW1990 human pancreas orthotopic tumor", "conditions": "in vivo; cited from earlier work"}, "JAK2V617F": {"target": "T1, JAK2V617F (Homo sapiens, UniProt O60674, V617F)", "T1 construct": "host or cells: Ba/F3", "T1 sequence (O60674 whole entry V617F)": "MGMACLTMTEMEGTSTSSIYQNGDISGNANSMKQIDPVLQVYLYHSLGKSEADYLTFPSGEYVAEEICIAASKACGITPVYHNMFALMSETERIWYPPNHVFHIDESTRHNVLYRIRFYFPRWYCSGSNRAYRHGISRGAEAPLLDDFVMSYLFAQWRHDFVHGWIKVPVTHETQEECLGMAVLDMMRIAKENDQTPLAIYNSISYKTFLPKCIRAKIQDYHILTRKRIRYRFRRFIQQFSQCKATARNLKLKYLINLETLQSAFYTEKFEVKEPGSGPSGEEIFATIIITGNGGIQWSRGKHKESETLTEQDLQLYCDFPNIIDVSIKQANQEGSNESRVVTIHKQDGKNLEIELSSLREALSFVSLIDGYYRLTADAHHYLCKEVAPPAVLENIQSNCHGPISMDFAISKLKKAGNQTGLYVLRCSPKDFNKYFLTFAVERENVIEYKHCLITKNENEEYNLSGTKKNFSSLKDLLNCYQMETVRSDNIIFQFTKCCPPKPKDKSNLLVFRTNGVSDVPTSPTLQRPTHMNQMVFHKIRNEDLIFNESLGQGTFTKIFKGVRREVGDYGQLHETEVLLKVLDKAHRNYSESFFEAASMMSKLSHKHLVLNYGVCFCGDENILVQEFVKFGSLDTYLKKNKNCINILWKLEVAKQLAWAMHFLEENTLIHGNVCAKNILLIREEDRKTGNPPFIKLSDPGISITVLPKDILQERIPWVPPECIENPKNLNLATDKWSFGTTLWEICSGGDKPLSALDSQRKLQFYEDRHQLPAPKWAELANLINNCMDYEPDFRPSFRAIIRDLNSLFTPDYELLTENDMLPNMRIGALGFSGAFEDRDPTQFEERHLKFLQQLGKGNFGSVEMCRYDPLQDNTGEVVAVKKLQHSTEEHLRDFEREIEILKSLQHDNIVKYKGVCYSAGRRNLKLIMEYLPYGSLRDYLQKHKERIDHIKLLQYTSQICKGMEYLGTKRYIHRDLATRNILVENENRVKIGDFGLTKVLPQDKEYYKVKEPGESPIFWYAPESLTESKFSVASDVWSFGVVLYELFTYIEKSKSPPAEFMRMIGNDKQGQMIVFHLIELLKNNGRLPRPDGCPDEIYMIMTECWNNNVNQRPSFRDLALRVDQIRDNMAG", "conditions": "Ba/F3 cells; read-out: IC50 JAK2V617F-driven signaling; cited from earlier work"}, "wild-type JAK2 [5]": {"target": "T2, wild-type JAK2 (Homo sapiens, UniProt O60674)", "T2 sequence (O60674 whole entry, species assumed)": "as the sequence (O60674 whole entry V617F) above, with F617V counted along it", "conditions": "read-out: IC50 interleukin-3-stimulated wild-type JAK2-mediated signaling; cited from earlier work"}, "wild-type JAK2 [6]": {"target": "T2, wild-type JAK2", "conditions": "read-out: IC50 interleukin-3-stimulated wild-type JAK2-mediated cell proliferation; cited from earlier work"}, "[7]": {"test_system": "Ba/F3-JAK2V617F-GFP ascitic tumor cells", "conditions": "cited from earlier work"}, "[8]": {"test_system": "Ba/F3-JAK2V617F-GFP tumor burden", "conditions": "cited from earlier work"}, "[9]": {"conditions": "in vivo; cited from earlier work"}, "[10]": {"test_system": "FGF-over VEGF-mediated target signaling", "conditions": "in mice; cited from earlier work"}, "[11]": {"assay": "Tissue distribution of ganetespib in female CD-1 nu/nu mice bearing RERF human NSCLC xenografts", "type": "in vivo", "excerpt": "Tissue Distribution of Ganetespib in Female CD-1 Nu/Nu Mice Bearing RERF Human NSCLC Xenografts\nTo confirm the distribution of ganetespib in blood, livers, kidneys, brains, hearts, lungs and tumors after IV administration of ganetespib to female CD-1 nu/nu mice bearing RERF human NSCLC xenografts, and to examine metabolic profiles of ganetespib in plasma, red blood cells, and above tissues.\nAnimals: female CD-1 nu/nu mice bearing RERF human NSCLC xenografts (N=3/group)\nFormulation: 10% DMSO, 18% Cremophor RH40, 3.6% dextrose solution (DRD)\nBleeding time points: 5 min, 6, 24 hr\nCollected tissues: blood (plasma and red blood cells (RBC)), liver, kidneys, brain, heart, lung, tumor\nProtein precipitation: 50 μL of 10 times diluted plasma or RBC+150 μL ACN (10 mM NH4OAc), vortexed and centrifuged at 10000 rpm for 8 min; 150 μL supernatant+150 μL water (10 mM NH4OAc)\nProtein precipitation: 100 μL homogenized tissue (1:3 tissue: PBS buffer)+100 μL ACN (10 mM NH4OAc), vortexed and centrifuged at 10000 rpm for 8 min\nColumn: Agilent Zorbax Eclipse XDB-C18, 4.6×150 mm, 5 μm\nMobile phase: A: water containing 10 mM NH4OAc; B: 95% ACN containing 10 mM NH4OAc\nGradient: 95/5 A/B to 5/95 A/B in 10 min, total run time 15 min\nColumn: Phenomenex Synergi, 2.1×50 mm, 4 μm\nMobile phase: A: water containing 0.1% HCOOH; B: ACN containing 0.1% HCOOH\nGradient: 60/40 A/B to 5/95 A/B in 0.5 min, total run time 4 min"}, "HER2 [12]": {"test_system": "HER2", "assay": "in vitro HER2 assays", "type": "cell-based", "excerpt": "This example illustrates how a HER2 degradation assay may be used as a test to determine and select Hsp90-targeting moieties suitable for use in SDC-TRAPs of the invention, and further illustrates the ability of SDC-TRAPs to target cells preferentially expressing Hsp90. Such a test may further be used to determine the Hsp90 binding ability of SDC-TRAPs of the invention, as well as through competitive binding assays and cell-based Hsp90 client protein degradation assays known in the art.\nBT-474 cells are plated in the interior 60 wells of a 96 well black clear bottom plate (20,000 cells/well) in DMEM medium, with DMEM media in the surrounding 36 wells, and incubated at 37° C. with 5% CO2 overnight. On the second day, concentration response curve source plates are produced (10 point, 3-fold dilution of compounds in DMSO) followed by a 1:30 dilution in an intermediate dilution plate containing DMEM. Compound is transferred from the intermediate plate to the cell plate at a dilution of 1:10. The cells are then incubated at 37° C. with 5% CO2 for 24 hours.\nCells are then fixed in 4% phosphate-buffered paraformaldehyde for 30 minutes at room temperature and then permeabilized by washing five times with 0.1% Triton X-100 in PBS for 5 minutes at room temperature on a shaker. […] The raw data is normalized to DRAQS and the HER2 EC50 is calculated using XLfit™. […]"}}, "note": "Read-outs that look alike come from different tables or passages of the source."}
{"smiles": "C=CCNC1=C2C[C@@H](C)C[C@H](OC)[C@H](O)[C@@H](C)/C=C(\\C)[C@H](OC(N)=O)[C@@H](OC)/C=C\\C=C(/C)C(=O)NC(=CC1=O)C2=O", "note": "[17-AAG]", "values": [{"measurement": "degradation of HER2", "setting": "HER2 [1]", "result": "partial degradation of HER2"}]}
{"smiles": "CC(C)(C)Cn1c(N)nc2ccc(-c3[nH]c(C(C)(C)C)nc3-c3ccc(F)cc3)nc21", "note": "[LY2228820, 5-[2-tert-Butyl-4-(4-fluorophenyl)-1H-imidazol-5-yl]-3-(2,2-dimethylpropyl)-3H-imidazo[4,5-b]pyridin-2-amine dimethanesulfonate]", "values": [{"measurement": "IC50", "setting": "p38α MAPK; in vitro, read-out: IC50 α isoform of p38 MAPK", "result": 5.3, "unit": "nM"}, {"measurement": "selectivity for p38α MAPK versus 179 other kinases tested", "setting": "p38α MAPK; including p38δ and γ isoforms", "result": "> 1000", "unit": "fold"}, {"measurement": "IC50", "setting": "β isoform of p38 MAPK", "result": 3.2, "unit": "nM"}, {"measurement": "IC50", "setting": "[2]", "result": 8.1, "unit": "nM"}, {"measurement": "IC50", "setting": "[3]", "result": 35.3, "unit": "nM"}, {"measurement": "IC50", "setting": "TNFα secretion", "result": 6.3, "unit": "nM"}, {"measurement": "TMED70 phospho-MK2 inhibition in tumors", "setting": "phospho-MK2; mice transplanted with B16-F10 melanomas", "result": 19.4, "unit": "mg/kg"}, {"measurement": "duration of significant target inhibition", "setting": "phospho-MK2; single 10 mg/kg oral dose", "result": "4 to 8", "unit": "h"}, {"measurement": "inhibition of phospho-MK2", "setting": "phospho-MK2; single 10 mg/kg oral dose", "result": "> 40", "unit": "%"}]}
{"smiles": "COc1cccc(OCCCN)c1-c1cc(Nc2cnc(C#N)cn2)n[nH]1", "note": "[LY2606368, 5-((5-(2-(3-aminopropoxy)-6-methoxyphenyl)-1H-pyrazol-3-yl)amino)pyrazine-2-carbonitrile]", "values": [{"measurement": "IC50", "setting": "SW1990", "result": 1.5, "unit": "nM"}, {"measurement": "inhibition of metastasis to lymph node, spleen, and intestine", "setting": "[4]", "result": 100, "unit": "%"}, {"measurement": "inhibition of primary tumor growth", "setting": "[4]", "result": "over 92%"}]}
{"smiles": "Cc1cc(Nc2cc(CN3CCOCC3)c3nc(C)c(Cc4ccc(Cl)cc4F)n3n2)n[nH]1", "note": "[LY2784544, 3-(4-Chloro-2-fluorobenzyl)-2-methyl-N-(5-methyl-1H-pyrazol-3-yl)-8-(morpholin-4-ylmethyl)imidazo[1,2-b]pyridazin-6-amine]", "values": [{"measurement": "IC50", "setting": "JAK2V617F", "result": 20, "unit": "nM"}, {"measurement": "IC50", "setting": "wild-type JAK2 [5]", "result": 1180, "unit": "nM"}, {"measurement": "IC50", "setting": "wild-type JAK2 [6]", "result": 1310, "unit": "nM"}, {"measurement": "TED50 inhibition of STATS phosphorylation", "setting": "[7]", "result": 12.7, "unit": "mg/kg"}, {"measurement": "effect on erythroid progenitors, reticulocytes or platelets", "setting": "[8]; in vivo", "result": "no effect"}, {"measurement": "TED50 reduction of Ba/F3-JAK2V617F-GFP tumor burden", "setting": "[8]; twice daily", "result": 13.7, "unit": "mg/kg"}]}
{"smiles": "CCN1CCN(Cc2ccc(Nc3ncc(F)c(-c4cc(F)c5nc(C)n(C(C)C)c5c4)n3)nc2)CC1.CS(=O)(=O)O", "note": "[LY2835219, 2-Pyrimidinamine, N-[5-[(4-ethyl-1-piperazinyl)methyl]-2-pyridinyl]-5-fluoro-4-[4-fluoro-2-methyl-1-(1-methylethyl)-1H-benzimidazol-6-yl]-, methanesulfonate (1:1)]", "values": [{"measurement": "percent of dose in brain", "setting": "[9]", "result": "0.5-3.9%"}]}
{"smiles": "C[C@@H](Oc1ccc2[nH]nc(/C=C/c3cnn(CCO)c3)c2c1)c1c(Cl)cncc1Cl", "note": "[LY2874455, (R)-(E)-2-(4-(2-(5-(1-(3,5-Dichloropyridin-4-yl)ethoxy)-1H-indazol-3-yl)vinyl)-1H-pyrazol-1-yl) ethanol]", "values": [{"measurement": "in vitro and in vivo selectivity on inhibition of FGF-over VEGF-mediated target signaling", "setting": "[10]", "result": "6- to 9 fold"}]}
{"smiles": "CC(C)c1cc(-c2nnc(O)n2-c2ccc3c(ccn3C)c2)c(O)cc1O", "note": "[ganetespib]", "values": [{"measurement": "concentration of ganetespib in tumor", "setting": "[11]; 5 min after 50 mg/kg IV", "result": 2350, "unit": "nM"}, {"measurement": "mean concentration in plasma relative to RBC", "setting": "[11]; 5 min time point", "result": "about 10 times"}, {"measurement": "Concentration of ganetespib in plasma", "setting": "[11]; 24 hr after 50 mg/kg IV", "result": ">LLOQ"}, {"measurement": "IC50", "setting": "HER2 [12]", "result": "~30", "unit": "nM"}]}
